The target of this test is T1, PDGFRB(DKIN) (PDGFR-β) (Homo sapiens, UniProt P09619).
T1 construct: PDGFRB(DKIN)
In words: Phage-display competitive binding assay, PDGFRB(DKIN). The settings on record: T7 phage displaying human PDGFR-β, DKIN construct; read-out: Binding Assay: PDGFRB(DKIN). Here is the method: The term “ND” represents non-determined values.
Briefly, T7 phage displaying human PDGFR-β were incubated with an affinity matrix coated with known PDGFR-β inhibitor in the presence of various concentrations of the soluble competitor molecules.
On to `CC(C)(C)c1cc(NC(=O)Nc2ccc(C(=O)/C=C/c3ccncc3)cc2)no1`, for which the Kd lay in the range of 100 to 1000 nM.
Then `O=C(c1cc2ccccc2[nH]1)c1cc2cc(O)ccc2[nH]1`, with less than 100 nM.
The same measure for `CC(C)(C)c1cnc(CSc2cnc(NC(=O)Nc3ccon3)s2)o1`: 1000 to 10000 nM; for `CC(C)(C)c1cc(NC(=O)Nc2ccc(CCc3ccc(N)cc3)cc2)no1` [Compound A3]: less than 100 nM.
The same measure for `CC(C)(C)c1cc(NC(=O)Nc2ccc(Cl)cc2Cl)no1` [Compound A7]: 1000 to 10000 nM.
As to `CC(C)c1ccc(NC(=O)Nc2cc(C(C)(C)C)no2)cc1` [Compound A11], the Kd fell in the range of 100 to 1000 nM.
Then `CC(C)(C)c1cc(NC(=O)Nc2ccc(OC(F)F)cc2)no1` [Compound A12], with 100 to 1000 nM.
The same measure for `CC(C)(C)c1cc(NC(=O)Nc2ccc(OC(F)(F)F)cc2)on1` [Compound A13]: 100 to 1000 nM; for `CC(C)(C)c1cc(NC(=O)Nc2ccc(CCc3ccccc3)cc2)no1` [Compound A15]: less than 100 nM; for `CC(C)(C)c1ccc(NC(=O)Nc2cc(C(C)(C)C)no2)cc1` [Compound A16]: 100 to 1000 nM.
Then `CC(C)(C)c1cc(NC(=O)Nc2ccc3cc4ccccc4cc3c2)no1` [Compound A18], with 1000 to 10000 nM; and `CC(=O)c1ccc(NC(=O)Nc2cc(C(C)(C)C)on2)cc1` [Compound A20], with 100 to 1000 nM; and `CC(C)(C)c1cc(NC(=O)Nc2ccc([N+](=O)[O-])cc2)no1` [Compound A21], with 100 to 1000 nM.
In the case of `CC(C)(C)c1cc(NC(=O)Nc2ccc(Oc3ccccc3)cc2)no1` [Compound A24], the Kd lay in the range of 100 to 1000 nM.
As to `CC(C)c1ccc(NC(=O)Nc2cc(C(C)(C)C)on2)cc1` [Compound A25], the Kd was 100 to 1000 nM.
The same measure for `CC(C)(C)c1cc(NC(=O)Nc2ccc(Br)cc2C(F)(F)F)on1` [Compound A26]: 1000 to 10000 nM; for `CC(C)(C)c1cc(NC(=O)Nc2ccc(Cl)cc2)no1` [Compound A27]: 100 to 1000 nM.
Then `COc1ccc(NC(=O)Nc2cc(C(C)(C)C)on2)cc1` [Compound A29], with 100 to 1000 nM.
Then `COc1ccc(NC(=O)Nc2cc(C(C)(C)C)no2)cc1` [Compound A30], with less than 100 nM.
Consider `CC(C)(C)c1cc(NC(=O)Nc2ccc(Cl)cc2)on1` [Compound A32], for which the Kd is less than 100 nM.
In the case of `Cc1ccc(NC(=O)Nc2cc(C(C)(C)C)on2)cc1` [Compound A33], the Kd is less than 100 nM.
Regarding `CC(C)(C)c1cc(NC(=O)Nc2ccc(OCCN3CCOCC3)c3ccccc23)no1` [Compound A36], the Kd fell in the range of 1000 to 10000 nM.
Then `CSc1ccc(NC(=O)Nc2cc(C(C)(C)C)on2)cc1` [Compound A37], with 100 to 1000 nM.
The same measure for `CSc1ccc(NC(=O)Nc2cc(C(C)(C)C)no2)cc1` [Compound A39]: 100 to 1000 nM; for `C[S+]([O-])c1ccc(NC(=O)Nc2cc(C(C)(C)C)on2)cc1` (stereo not drawn) [Compound A46]: 100 to 1000 nM; for `COc1ccc(NC(=O)Nc2cc(C(C)(C)C)on2)cc1OC` [Compound A55]: 1000 to 10000 nM.
The same measure for `CC(C)(C)c1cc(NC(=O)Nc2ccc3c(c2)OCO3)no1` [Compound A56]: 1000 to 10000 nM; for `CC(C)(C)c1cc(NC(=O)Nc2ccc(N3C(=O)c4ccccc4C3=O)cc2)no1` [Compound A57]: less than 100 nM; for `COc1cccc(CNC(=O)Nc2cc(C(C)(C)C)on2)c1` [Compound B3]: 100 to 1000 nM.
`CC(C)(C)c1cc(NC(=O)Nc2ccc(C(=O)O)cc2)no1` [Compound C2]: the Kd is more than 10000 nM.
Then `Cc1ccc(-n2nc(C(C)(C)C)cc2NC(=O)Nc2ccc(C(C)C)cc2)cc1` [Compound D1, 1-(3-tert-butyl-1-p-tolyl-1H-pyrazol-5-yl)-3-(4-isopropylphenyl)urea], with more than 10000 nM.
Then `O=C(Nc1ccc(Cl)cc1)Nc1cc(C2CC2)nn1-c1ccccc1` [Compound D10], with 1000 to 10000 nM; and `CC(C)(C)c1cc(N2CCCN(c3ccc(OCc4ccccc4)cc3)C2=O)on1` [Compound E2], with 100 to 1000 nM; and `CC(C)(C)c1cc(N2CCCN(c3ccc(OCc4ccccc4)cc3)C2=O)no1` [Compound E3], with more than 10000 nM.
With `CN1CN(c2ccc(OCc3ccccc3)cc2)C(=O)N(c2cc(C(C)(C)C)on2)C1` [Compound E4], the Kd lay within 100 to 1000 nM.
Then `COc1ccc(N2CCCN(c3cc(C(C)(C)C)no3)C2=O)cc1` [Compound E5], with 100 to 1000 nM; and `CC(C)(C)c1cc(NC(=S)Nc2ccc(N3CCOCC3)cc2)no1` [Compound F1, 1-(5-tert-butylisoxazol-3-yl)-3-(4-morpholinophenyl)thiourea], with more than 10000 nM.
Then `CC(C)(C)c1cc(NC(=O)Nc2ccc(OCc3ccccc3C(F)(F)F)cc2)no1` [Compound G4], with 100 to 1000 nM; and `CC(C)(C)c1cc(NC(=O)Nc2ccc(OCc3ccc(OC(F)(F)F)cc3)cc2)no1` [Compound G5], with less than 100 nM.
Regarding `CC(C)(C)c1cc(NC(=O)Nc2ccc(OCc3ccc(C(F)(F)F)cc3)cc2)no1` [Compound G6], the Kd is less than 100 nM.
For `COC(=O)c1cccc(COc2ccc(NC(=O)Nc3cc(C(C)(C)C)on3)cc2)c1` [Compound G7], the Kd was less than 100 nM.
With `CC(C)(C)c1cc(NC(=O)Nc2ccc(OCc3ccccc3-c3ccccc3)cc2)no1` [Compound G8], the Kd was 100 to 1000 nM.
The same measure for `CC(C)(C)c1cc(NC(=O)Nc2ccc(OCc3ccc(C(=O)c4ccccc4)cc3)cc2)no1` [Compound G9]: 100 to 1000 nM; for `CC(C)(C)c1cc(NC(=O)Nc2ccc(OCc3ccccc3Cl)cc2)no1` [Compound G10]: less than 100 nM; for `CC(C)(C)c1cc(NC(=O)Nc2ccc(OCc3cccc(Cl)c3)cc2)no1` [Compound G11]: less than 100 nM.
The same measure for `CC(C)(C)c1cc(NC(=O)Nc2ccc(OCc3ccccc3F)cc2)no1` [Compound G12, 1-(4-(2-fluorobenzyloxy)phenyl)-3-(5-tert-butylisoxazol-3-yl)urea]: less than 100 nM; for `COc1cccc(COc2ccc(NC(=O)Nc3cc(C(C)(C)C)on3)cc2)c1` [Compound G13]: less than 100 nM.
For `CC(C)(C)c1cc(NC(=O)Nc2ccc(OCc3cccc(F)c3)cc2)no1` [Compound G14], the Kd was less than 100 nM.
Then `Cc1ccc(COc2ccc(NC(=O)Nc3cc(C(C)(C)C)on3)cc2)cc1` [Compound G15], with less than 100 nM; and `CC(Oc1ccc(NC(=O)Nc2cc(C(C)(C)C)on2)cc1)c1ccccc1` (stereo not drawn) [Compound G17], with 100 to 1000 nM; and `CC(C)(C)c1cc(NC(=O)Nc2ccc(OCc3ccc(F)cc3Cl)cc2)no1` [Compound G18], with less than 100 nM.
The same measure for `CC(C)(C)c1cc(NC(=O)Nc2ccc(OCc3c(Cl)cccc3Cl)cc2)no1` [Compound G19]: 100 to 1000 nM; for `CCOc1ccc(NC(=O)Nc2cc(C(C)(C)C)on2)cc1` [Compound G20]: less than 100 nM; for `CC(C)(C)c1cc(NC(=O)Nc2ccc(OCc3c(F)cccc3F)cc2)no1` [Compound G21]: less than 100 nM.
The same measure for `CC(C)(C)c1cc(NC(=O)Nc2ccc(OCCc3ccncc3)cc2)no1` [Compound G22]: less than 100 nM.
As for `CC(C)(C)c1cc(NC(=O)Nc2ccc(OC/C=C/c3ccccc3Cl)cc2)no1` [Compound G26], the Kd was less than 100 nM.
Consider `CC(C)(C)c1cc(NC(=O)Nc2ccc(OCC(O)CO)cc2)no1` (stereo not drawn) [Compound G28], for which the Kd lay within 100 to 1000 nM.

Source of the values: patent US20050197371A1, “Urea derivatives as PDGFR modulators” (Ambit Biosciences Corporation, priority 2003, published 2005).
